Experimental data from patent US11535607B2, “Isoindolines as HDAC inhibitors” (Valo Health, Inc., priority 2018, dated 2022).
Structures can show the parent of a compound that is named as a salt.

Each compound was assayed against full-length human HDAC11 (Homo sapiens (Human), UniProt Q96DB2) (assay: Probe binding HDAC11 time resolved fluorescence (TRF) assay). Conditions: Table 2, read-out: HDAC11 IC50 Range.
Experimental: The probe binding HDAC11 assay was performed using a time resolved fluorescence (TRF) assay format. Recombinant N-terminal GST tag full-length human HD AC 11 was expressed and purified from baculovirus in Sf9 insect cells (SignalChem, #H93-30G-1000). […] 4 μL of 2× probe and 2× anti-GST Terbium (Cisbio, #61GSTXLB) was added to assay plates followed by 4 μL of 2×HDAC11.
Data from HD AC 11 Assays were reported as percent inhibition (inh) compared with control wells based on the following equation: % inh=1−((FLU−AveLow)/(AveHigh−AveLow)) where FLU=measured time resolved fluorescence. AveLow=average time resolved fluorescence of no enzyme control (n=32). AveHigh=average time resolved fluorescence of DMSO control (n=32). IC50 values were determined by curve fitting of the standard 4 parameter logistic fitting algorithm included in the Activity Base software package: IDBS XE Designer Model205. Data is fitted using the Levenburg Marquardt algorithm.

Chain of full-length human HDAC11 (Q96DB2 whole entry): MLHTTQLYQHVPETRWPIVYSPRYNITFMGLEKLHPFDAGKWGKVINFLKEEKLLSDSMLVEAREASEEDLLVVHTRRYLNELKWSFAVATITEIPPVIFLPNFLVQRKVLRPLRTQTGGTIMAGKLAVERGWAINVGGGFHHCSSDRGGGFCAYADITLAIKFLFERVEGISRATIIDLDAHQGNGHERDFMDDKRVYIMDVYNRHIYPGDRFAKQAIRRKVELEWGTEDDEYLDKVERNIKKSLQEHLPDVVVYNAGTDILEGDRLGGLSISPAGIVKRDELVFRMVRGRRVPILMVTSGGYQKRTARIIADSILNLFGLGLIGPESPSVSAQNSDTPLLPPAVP

CC1(C)c2cccc(C(=O)NO)c2CN1C(=O)c1ccc(C(F)(F)F)cc1 [Compound 28-1, N-hydroxy-1,1-dimethyl-2-(4-(trifluoromethyl)benzoyl)isoindoline-4-carboxamide] and CC1(C)c2cccc(C(=O)NO)c2CN1C(=O)c1cccc(C(F)(F)F)c1 [Compound 28-2, N-hydroxy-1,1-dimethyl-2-(3-(trifluoromethyl)benzoyl)isoindoline-4-carboxamide] cannot be ordered by IC50: greater than 1000 nM for the first, greater than 1000 nM for the second.

CCC(C(=O)N1Cc2cccc(C(=O)NO)c2C1)c1ccc(OC)cc1 (centres unmarked) [Compound 28-3, N-hydroxy-2-(2-(4-methoxyphenyl)butanoyl)isoindoline-4-carboxamide] and COc1ccc(CN2Cc3cccc(C(=O)NO)c3C2)cc1 [Compound 41-2, N-hydroxy-2-(4-methoxybenzyl)isoindoline-4-carboxamide] cannot be ordered by IC50: greater than 1000 nM for the first, greater than 1000 nM for the second.

First: CC1(C)c2cccc(C(=O)NO)c2CN1C(=O)Nc1ccc(C(F)(F)F)cc1 [Compound 29-1, N4-hydroxy-1,1-dimethyl-N2-(4-(trifluoromethyl)phenyl)isoindoline-2,4-dicarboxamide]
Second: CC1(C)c2cccc(C(=O)NO)c2CN1C(=O)Nc1ccc(C(F)(F)F)nc1 [Compound 30-1, N4-hydroxy-1,1-dimethyl-N2-(6-(trifluoromethyl)pyridin-3-yl)isoindoline-2,4-dicarboxamide]
The IC50 of the first is lower: less than 500 nM for the first, 500 to 1000 nM for the second. The first is the more potent here.

Going from CC1(C)c2cccc(C(=O)NO)c2CN1C(=O)Nc1ccc(C(F)(F)F)cn1 [Compound 30-2, N4-hydroxy-1,1-dimethyl-N2-(5-(trifluoromethyl)pyridin-2-yl)isoindoline-2,4-dicarboxamide] to CC1(C)c2cccc(C(=O)NO)c2CN1C(=O)Nc1cc(C(F)(F)F)ccn1 [Compound 30-5, N4-hydroxy-1,1-dimethyl-N2-(4-(trifluoromethyl)pyridin-2-yl)isoindoline-2,4-dicarboxamide], the IC50 falls from greater than 1000 nM to less than 500 nM.

First: CC1(C)c2cccc(C(=O)NO)c2CN1C(=O)Nc1ccnc(C(F)(F)F)c1 [Compound 30-3, N4-hydroxy-1,1-dimethyl-N2-(2-(trifluoromethyl)pyridin-4-yl)isoindoline-2,4-dicarboxamide]
Second: CC1(C)c2cccc(C(=O)NO)c2CN1C(=O)Nc1cccc(C(F)(F)F)n1 [Compound 30-6, N4-hydroxy-1,1-dimethyl-N2-(6-(trifluoromethyl)pyridin-2-yl)isoindoline-2,4-dicarboxamide]
The IC50 of the first is lower: less than 500 nM for the first, greater than 1000 nM for the second. The first is the more potent here.

CC1(C)c2cccc(C(=O)NO)c2CN1C(=O)Nc1cncc(C(F)(F)F)c1 [Compound 30-4, N4-hydroxy-1,1-dimethyl-N2-(5-(trifluoromethyl)pyridin-3-yl)isoindoline-2,4-dicarboxamide] and CC1(C)c2cccc(C(=O)NO)c2CN1C(=O)Nc1nc2ccccc2o1 [Compound 30-7, N2-(benzo[d]oxazol-2-yl)-N4-hydroxy-1,1-dimethylisoindoline-2,4-dicarboxamide] cannot be ordered by IC50: greater than 1000 nM for the first, greater than 1000 nM for the second.

First: CC1(C)c2cccc(C(=O)NO)c2CN1C(=O)Nc1cc2c(cn1)CCCC2 [Compound 31-1, N4-hydroxy-1,1-dimethyl-N2-(5,6,7,8-tetrahydroisoquinolin-3-yl)isoindoline-2,4-dicarboxamide]
Second: COc1ccc(CN2Cc3c(C(=O)NO)cccc3C2(C)C)cc1 [Compound 32-1, N-hydroxy-2-(4-methoxybenzyl)-1,1-dimethylisoindoline-4-carboxamide hydrochloride]
The IC50 of the first is lower: 500 to 1000 nM for the first, greater than 1000 nM for the second.

First: CC1(C)c2ccnc(C(=O)NO)c2CN1c1ccc(C(F)(F)F)cn1 [Compound 33-1, N-hydroxy-1,1-dimethyl-2-(5-(trifluoromethyl)pyridin-2-yl)-2,3-dihydro-1H-pyrrolo [3,4-c]pyridine-4-carboxamide]
Second: CC1(C)c2cccc(C(=O)NO)c2N[C@H]1c1ccc(C(F)(F)F)cn1 [Compound 40-1, (R)—N-hydroxy-3,3-dimethyl-2-(5-(trifluoromethyl)pyridin-2-yl)indoline-7-carboxamide]
The IC50 of the first is lower: 500 to 1000 nM for the first, greater than 1000 nM for the second. The first is the more potent here.

First: O=C(NO)c1cccc2c1CN(c1nc3cc(C(F)(F)F)c(-c4ccccc4)cc3[nH]1)C2 [Compound 34-1, N-hydroxy-2-(5-phenyl-6-(trifluoromethyl)-1H-benzo[d]imidazol-2-yl)isoindoline-4-carboxamide]
Second: O=C(NO)c1cccc2c1CN(c1nc3cc(C(F)(F)F)cc(-c4ccccc4)c3[nH]1)C2 [Compound 35-1, N-hydroxy-2-(7-phenyl-5-(trifluoromethyl)-1H-benzo[d]imidazol-2-yl)isoindoline-4-carboxamide]
The IC50 of the first is lower: less than 500 nM for the first, 500 to 1000 nM for the second.

O=C(NO)c1cccc2c1CN(c1nc3cccc(-c4ccccc4)c3[nH]1)C2 [Compound 35-2, N-hydroxy-2-(7-phenyl-1H-benzo[d]imidazol-2-yl)isoindoline-4-carboxamide] and O=C(NO)c1cccc2c1CN(c1ccccc1)C2 [Compound 42-1, N-hydroxy-2-phenylisoindoline-4-carboxamide] cannot be ordered by IC50: greater than 1000 nM for the first, greater than 1000 nM for the second.

Going from O=C(NO)c1cccc2c1CN(c1nc3ccccc3o1)C2=O [Compound 36-1, 2-(benzo[d]oxazol-2-yl)-N-hydroxy-1-oxoisoindoline-4-carboxamide] to O=C(NO)c1cccc2c1CN(c1nc3cc(C(F)(F)F)ccc3o1)C2=O [Compound 36-2, N-hydroxy-1-oxo-2-(5-(trifluoromethyl)benzo[d]oxazol-2-yl)isoindoline-4-carboxamide], the IC50 falls from greater than 1000 nM to less than 500 nM. The second is the more potent here.

O=C(NO)c1cccc2cc(-c3ccc(C(F)(F)F)cc3)[nH]c12 [Compound 37-1, N-hydroxy-2-(4-(trifluoromethyl)phenyl)-1H-indole-7-carboxamide] and O=C(NO)c1cccc2[nH]c(-c3ccc(C(F)(F)F)cc3)cc12 [Compound 37-2, N-hydroxy-2-(4-(trifluoromethyl)phenyl)-1H-indole-4-carboxamide] fall in the same range of IC50: 500 to 1000 nM for the first, 500 to 1000 nM for the second.

O=C(NO)c1cccc2cc(-c3cnc(C(F)(F)F)cn3)[nH]c12 [Compound 37-3, N-hydroxy-2-(5-(trifluoromethyl)pyrazin-2-yl)-1H-indole-7-carboxamide] and O=C(NO)c1cccc2[nH]c(-c3cnc(C(F)(F)F)cn3)cc12 [Compound 37-4, N-hydroxy-2-(5-(trifluoromethyl)pyrazin-2-yl)-1H-indole-4-carboxamide] cannot be ordered by IC50: less than 500 nM for the first, less than 500 nM for the second.

First: O=C(NO)c1cccc2c1NC(c1ccc(C(F)(F)F)cc1)C2 (centres unmarked) [Compound 38-1, N-hydroxy-2-(4-(trifluoromethyl)phenyl)indoline-7-carboxamide]
Second: O=C(NO)c1cccc2c1N[C@@H](c1ccc(C(F)(F)F)cc1)C2 [Compound 39-1, (R)—N-hydroxy-2-(4-(trifluoromethyl)phenyl)indoline-7-carboxamide]
The IC50 of the first is higher: 500 to 1000 nM for the first, less than 500 nM for the second.

O=C(NO)c1cccc2c1CC(c1ccc(C(F)(F)F)cc1)N2 (centres unmarked) [Compound 38-2, N-hydroxy-2-(4-(trifluoromethyl)phenyl)indoline-4-carboxamide] and O=C(NO)c1cccc2c1N[C@H](c1ccc(C(F)(F)F)cc1)C2 [Compound 39-2, (S)—N-hydroxy-2-(4-(trifluoromethyl)phenyl)indoline-7-carboxamide] cannot be ordered by IC50: greater than 1000 nM for the first, greater than 1000 nM for the second.

CC1(C)c2cccc(C(=O)NO)c2N[C@@H]1c1ccc(C(F)(F)F)cn1 [Compound 40-2, (S)—N-hydroxy-3,3-dimethyl-2-(5-(trifluoromethyl)pyridin-2-yl)indoline-7-carboxamide] and CC1(C)c2cccc(C(=O)NO)c2N[C@H]1c1cnc(C(F)(F)F)cn1 [Compound 40-3, (R)-N-hydroxy-3,3-dimethyl-2-(5-(trifluoromethyl)pyrazin-2-yl)indoline-7-carboxamide] cannot be ordered by IC50: less than 500 nM for the first, less than 500 nM for the second.

Compared with CC1(C)c2cccc(C(=O)NO)c2N[C@@H]1c1cnc(C(F)(F)F)cn1 [Compound 40-4, (S)-N-hydroxy-3,3-dimethyl-2-(5-(trifluoromethyl)pyrazin-2-yl)indoline-7-carboxamide], CC1(C)c2cccc(C(=O)NO)c2N[C@H]1c1ccc(C(F)(F)F)cc1 [Compound 40-5, (S)-N-hydroxy-3,3-dimethyl-2-(4-(trifluoromethyl)phenyl)indoline-7-carboxamide] is lower in IC50: greater than 1000 nM for the first, 500 to 1000 nM for the second. The second is the more potent here.

CC1(C)c2cccc(C(=O)NO)c2N[C@@H]1c1ccc(C(F)(F)F)cc1 [Compound 40-6, (R)-N-hydroxy-3,3-dimethyl-2-(4-(trifluoromethyl)phenyl)indoline-7-carboxamide] and O=C(NO)c1cccc2c1CN(c1cccc(C(F)(F)F)n1)C2 [Compound 45-2, N-hydroxy-2-(6-(trifluoromethyl)pyridin-2-yl)isoindoline-4-carboxamide] cannot be ordered by IC50: greater than 1000 nM for the first, greater than 1000 nM for the second.

O=C(NO)c1cccc2c1CN(C(=O)c1ccccc1)C2 [Compound 41-1, 2-benzoyl-N-hydroxyisoindoline-4-carboxamide] and O=C(NO)c1cccc2c1CN(C1=NC(O)(C(F)(F)F)C(c3ccccc3)=N1)C2 (centres unmarked) [Compound 44-1, N-hydroxy-2-(4-hydroxy-5-phenyl-4-(trifluoromethyl)-4H-imidazol-2-yl)isoindoline-4-carboxamide] cannot be ordered by IC50: greater than 1000 nM for the first, greater than 1000 nM for the second.
